In US20040071967A1, “Microcapsule containing phase-change material and nucleating agent” (priority 2000, published 2004):
Read-outs that look alike come from different tables or passages of the source.

Legend:
Format in all cases: physicochemical
[1] = Dynamic surface tension of aqueous solutions, maximum bubble pressure method; conditions: for γ (0.1% solution) 1 b/s / γ (0.1% solution) 6 b/s / limiting γ 0.1 b/s / limiting γ 20 b/s / pC20: Tables 5 and 6; for limiting γ 0.1 b/s / limiting γ 20 b/s: lowest surface tension in water; for pC20: negative logarithm of molar concentration giving 52.1 dyne/cm at 0.1 b/s
Experimental: In practical terms, high bubble rates correspond to high printing speeds in lithographic printing, high spray or roller velocities in coating applications, and rapid application rates for agricultural products. […] This value is a measure of the efficiency of a surfactant. […] The critical aggregation concentrations (solubility limit or critical micelle concentration) were determined by intersection of the linear portion of a surface tension/In concentration curve with the limiting surface tension as is described in many textbooks. The limiting surface tensions at 0.1 and 20 bubbles/second (b/s) represent the lowest surface tensions in water which can be achieved at the given surface creation rate for a given surfactant regardless of the amount of surfactant used. These values give information about the relative ability to a surfactant to reduce surface defects under near-equilibrium condition (0.1 b/s) through very dynamic conditions (20 b/s). Lower surface tensions would allow the elimination of defects upon application of a formulation onto lower energy surfaces.

[2] = Ross-Miles foam test based upon ASTM D 1173-53, 0.1 wt % solution; conditions: Tables 5 and 6; for RM Foam initial: initial foam height
Experimental: The foam height is measured at the completion of the addition (“Initial Foam Height”) and the time required for the foam to dissipate is recorded (“Time to 0 Foam”). This test provides a comparison between the foaming characteristics of various surfactant solutions. In general, in coatings, inks, and agricultural formulations, foam is undesirable because is complicates handling and can lead to coating and print defects, and to inefficient application of agricultural materials.

[3] = Critical aggregation concentration (solubility limit or critical micelle concentration)
Experimental: The critical aggregation concentrations (solubility limit or critical micelle concentration) were determined by intersection of the linear portion of a surface tension/In concentration curve with the limiting surface tension as is described in many textbooks. The limiting surface tensions at 0.1 and 20 bubbles/second (b/s) represent the lowest surface tensions in water which can be achieved at the given surface creation rate for a given surfactant regardless of the amount of surfactant used. These values give information about the relative ability to a surfactant to reduce surface defects under near-equilibrium condition (0.1 b/s) through very dynamic conditions (20 b/s). Lower surface tensions would allow the elimination of defects upon application of a formulation onto lower energy surfaces.

3.5 mole ethoxylate of 2,4,7,9-tetramethyl-5-decyne-4,7-diol capped with 2 moles of propylene oxide [Example 3]
γ (0.1% solution) 1 b/s ([1]; 1 b/s): 33.6 dyne/cm
γ (0.1% solution) 6 b/s ([1]; 6 b/s): 36.6 dyne/cm
limiting γ 0.1 b/s ([1]; 0.1 b/s): 29.3 dyne/cm
limiting γ 20 b/s ([1]; 20 b/s): 31.4 dyne/cm
pC20 [1]: 4.07
RM Foam initial [2]: 1.0 cm
RM Foam (t to 0) ([2]; time to 0 foam): (10 s)
Sol Limit [3]: 0.21 wt %

10 mole EO/2 mole PO block derivative of 2,4,7,9-tetramethyl-5-decyne-4,7-diol [Example 5]
γ (0.1% solution) 1 b/s ([1]; 1 b/s): 42.0 dyne/cm
γ (0.1% solution) 6 b/s ([1]; 6 b/s): 44.3 dyne/cm
Dynamic Surface Tension ([1]; 0.1 wt % in distilled water, 0.1 b/s): 40.5 dyne/cm
Dynamic Surface Tension ([1]; 0.1 wt % in distilled water, 1 b/s): 42.0 dyne/cm
Dynamic Surface Tension ([1]; 0.1 wt % in distilled water, 6 b/s): 44.3 dyne/cm
Dynamic Surface Tension ([1]; 0.1 wt % in distilled water, 15 b/s): 47.1 dyne/cm
Dynamic Surface Tension ([1]; 0.1 wt % in distilled water, 20 b/s): 48.1 dyne/cm
Dynamic Surface Tension ([1]; 0.5 wt % in distilled water, 0.1 b/s): 32.4 dyne/cm
Dynamic Surface Tension ([1]; 0.5 wt % in distilled water, 1 b/s): 33.6 dyne/cm
Dynamic Surface Tension ([1]; 0.5 wt % in distilled water, 6 b/s): 35.1 dyne/cm
Dynamic Surface Tension ([1]; 0.5 wt % in distilled water, 15 b/s): 36.6 dyne/cm
Dynamic Surface Tension ([1]; 0.5 wt % in distilled water, 20 b/s): 37.2 dyne/cm
Dynamic Surface Tension ([1]; 1.0 wt % in distilled water, 0.1 b/s): 29.8 dyne/cm
Dynamic Surface Tension ([1]; 1.0 wt % in distilled water, 1 b/s): 30.5 dyne/cm
Dynamic Surface Tension ([1]; 1.0 wt % in distilled water, 6 b/s): 32.1 dyne/cm
Dynamic Surface Tension ([1]; 1.0 wt % in distilled water, 15 b/s): 33.0 dyne/cm
Dynamic Surface Tension ([1]; 1.0 wt % in distilled water, 20 b/s): 33.7 dyne/cm
limiting γ 0.1 b/s ([1]; 0.1 b/s): 29.8 dyne/cm
limiting γ 20 b/s ([1]; 20 b/s): 33.7 dyne/cm
pC20 [1]: 4.05
RM Foam (foam height remaining) ([2]; cm after 5 minutes): (1.3) cm
RM Foam initial [2]: 2.1 cm
Sol Limit ([3]; water, Tables 5 and 6, unit printed only in Table 7 footnote): (0.78) wt %
